Three compounds from patent publication US11767330B2, “Citrate salt, pharmaceutical compositions, and methods of making and using the same” (Foghorn Therapeutics Inc., priority 2021, dated 2023) can be followed below.

In data set [1] the test system is non-synovial control cancer cell lines (293T, A549, G401). In words: Growth of non-synovial control cancer cell lines (Example 2). It is filed as cell-based. As to the method:
(§1) Cells were treated with DMSO or the BRD9 degrader, Compound 1, at indicated concentrations, and proliferation was monitored from day 7 to day 14 by measuring confluency overtime using an IncuCyte live cell analysis system (FIG. 4). Growth medium and compounds were refreshed every 3-4 days.
(§2) Cells were seeded into 12-well plates and treated with DMSO, 1 μM BRD9 inhibitor, Compound 2 (also known as BI-7273, see Martin et al, J Med Chem. 59(10):4462-4475 (2016); see structure of compound 2 below), or 1 μM BRD9 degrader, Compound 1.
(§3) The number of cells was optimized for each cell line. Growth medium and compounds were refreshed every 3-5 days. SYO1, Yamato, A549, 293T and HS-SY-II cells were fixed and stained at day 11. ASKA cells were fixed and stained at day 23. Staining was done by incubation with crystal violet solution (0.5 g Crystal Violet, 27 ml 37% Formaldehyde, 100 mL 10×PBS, 10 mL Methanol, 863 dH20 to 1 L) for 30 min followed by 3× washes with water and drying the plates for at least 24 h at room temperature. Subsequently plates were scanned on an Odyssey CLx Imaging system (FIG. 5).
(§4) Cells were seeded into 96-well ultra-low cluster plate (Costar, #7007) in 200 μL complete media and treated at day 2 with DMSO, Staurosporin, or BRD9 degrader, Compound 1, at indicated doses (FIG. 2C). Media and compounds were changed every 5 d and cell colonies were imaged at day 14.

Data set [2] has as its system SYO1 cells. In words: Cell cycle analysis, Click-iT Plus EdU Flow Cytometry Assay. To be noted: SYO1, 200 nM or 1 μM, 8 or 13 days, compared to DMSO and lenalidomide. In kind it is cell-based, human. As to the method: (§5) Procedure: SYO1 cells were treated for 8 or 13 days with DMSO, a BRD9 degrader (Compound 1) at 200 nM or 1 μM, or an E3 ligase binder (lenalidomide) at 200 nM. Compounds were refreshed every 5 days. Cell cycle analysis was performed using the Click-iT™ Plus EdU Flow Cytometry Assay (Invitrogen). The apoptosis assay was performed using the Annexin V-FITC Apoptosis Detection Kit (Sigma A9210). Assays were performed according to the manufacturer's protocol.
On the technique in general: A flow cytometer gives signals particle by particle.

For data set [3], the system named is synovial sarcoma cell lines (SYO1, Yamato, HS-SY-II, and ASKA). In words: Growth of synovial sarcoma cell lines, IncuCyte confluency / crystal violet / colony imaging (Example 2). In kind it is cell-based. To be noted: FIGS. 4, 5, 6. As to the method: as §1, §2, §3, §4
Data set [4] has as its system synovial sarcoma cell lines (SYO1, HS-SY-II, and ASKA). As to the kind of experiment: Growth of synovial sarcoma cell lines, crystal violet day 14 (Example 3). It is filed as cell-based. To be noted: daily treatment. As to the method: (§6) Procedure: Cells were seeded into 6-well or 12-well plates and were treated daily with a BRD9 degrader (Compound 1), a bromo-domain BRD9 binder (Compound 2), E3 ligase binder (lenalidomide), DMSO, or staurosporin (positive control for cell killing), at indicated concentrations. The number of cells was optimized for each cell line. Growth media was refreshed every 5 days. By day 14, medium was removed, cells were washed with PBS, and stained using 500 μL of 0.005% (w/v) crystal violet solution in 25% (v/v) methanol for at least 1 hour at room temperature. Subsequently plates were scanned on an Odyssey CLx Imaging system.

The test system of data set [5] is SYO1 cells. In words: Apoptosis assay, Annexin V-FITC Apoptosis Detection Kit. It is filed as cell-based, human. The following applies: SYO1, 8 days, compared to DMSO controls. As to the method:
as §5

The subject of data set [6] is non-synovial control cancer cell lines (RD, HCT116, and Calu6). In words: Growth of non-synovial control cancer cell lines, crystal violet day 14 (Example 3). To be noted: daily treatment. It is filed as cell-based. As to the method: as §6
Data set [7] concerns the target T1, Nanoluciferase-BRD9 fusion protein (Homo sapiens, UniProt Q9H8M2).
T1 construct: fused on or other part: 3xFLAG tag and Nanoluciferase (NLuc) as reporter handle, fused to BRD9. b953 puts them at the N-terminus
T1 sequence (Q9H8M2 134-240 limits assumed): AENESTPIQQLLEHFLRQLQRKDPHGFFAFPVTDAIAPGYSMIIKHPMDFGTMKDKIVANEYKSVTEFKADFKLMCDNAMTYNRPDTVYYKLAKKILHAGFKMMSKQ
In words: SYO1 BRD9 NanoLuc degradation assay. In kind it is cell-based. To be noted: 6 hours incubation; read-out: SYO1 BRD9-NanoLuc degradation IC50. As to the method:
Procedure: A stable SYO-1 cell line expressing 3×FLAG-NLuc-BRD9 was generated. On day 0 cells were seeded in 30 μL media into each well of 384-well cell culture plates. The seeding density was 8000 cells/well. On day 1, cells were treated with 30 nL DMSO or 30 nL of 3-fold serially DMSO-diluted compounds (10 points in duplicates with 1 μM as final top dose). Subsequently plates were incubated for 6 hours in a standard tissue culture incubator and equilibrated at room temperature for 15 minutes. Nanoluciferase activity was measured by adding 15 μL of freshly prepared Nano-Glo Luciferase Assay Reagent (Promega N1130), shaking the plates for 10 minutes and reading the bioluminescence using an EnVision reader.
Results: The Inhibition % was calculated using the following formula: % Inhibition=100×(LumHC−LumSample)/(LumHC−LumLC). DMSO treated cells are employed as High Control (HC) and 1 μM of a known BRD9 degrader standard treated cells are employed as Low Control (LC).

Data set [8] can be described thus: Solubility / precipitation of IV formulations on pH adjustment. It is filed as physicochemical. The following applies: pH lowered with hydrochloric acid solution. As to the method:
Summary of Experiments. […] The pH of the compounding solution would later be adjusted by sodium hydroxide solution to the target pH. […] Only samples containing 20% SBECD (samples S-1.1 and S-2.1) were fully soluble at the desired pH.
Sample Preparation. To a 20 mL scintillation vial was added 60 mg of the racemate of the free base of the compound of Formula I and a magnetic stir bar. 3 mL of formulation solution (either 0%, 10% or 20% w/w SBECD in H2O) was added. The pH of the mixture was adjusted to approximately pH 3 by the addition of 1N HCl. Upon full dissolution (with magnetic stirring, sonication if necessary), the IV formulation was adjusted to the final pH by the addition of 1N NaOH solution. The IV formulation was filtered through a syringe filter, separated into 3 samples of approximately equal volume, and the samples were transferred to a stability chamber at 2-5° C., 25° C., or 40° C. At the specified time point the sample was removed from the stability chamber, an aliquot of the IV formulation was removed and diluted to 0.5 mg/mL with H2O for HPLC analysis.
As noted above, significant precipitation of compound D1 occurred upon adjusting the IV formulation to the final pH level of 5 or 6 for IV formulations containing <20% SBECD. […] IV formulations were filtered prior to conducting the stability studies.

SMILES strings stand for the structures. Entries after “also recorded” stand apart in the source; their conditions may differ.

On to `COc1cc(-c2cn(C)c(=O)c3cnccc23)cc(OC)c1CN(C)CC(=O)NCCOCCOCCNc1cccc2c1C(=O)N(C1CCC(=O)NC1=O)C2=O` (centres unmarked) [Compound 1], for which the “growth of non-synovial control cancer cell lines” value is “does not result in inhibition of the growth” in data set [1] and “did not result in inhibition of the growth” in data set [6]. Besides, the “cells in the S-phase of the cell cycle” value in the data set with SYO1 cells [2] is reported as “reduced numbers of cells in the S-phase of the cell cycle”. The figures for the “growth of synovial sarcoma cell lines” value in data set [3] and in data set [4] were “inhibition of the growth of the cells” and “inhibition of the growth of the cells; also recorded: most significant growth inhibition in all synovial cell lines”, respectively. Further, the “early- and late-apoptotic cells” value with SYO1 cells [5] was “increased numbers of early- and late-apoptotic cells”.

Consider `[2H]C([2H])([2H])Oc1cc(-c2cn(C)c(=O)c3cnc(N4CCC4)cc23)cc(OC([2H])([2H])[2H])c1CN1CCC(CN2CCC3(CC2)CN(c2ccc4c(c2)C(=O)N(C2CCC(=O)NC2=O)C4)C3)CC1` (centres unmarked) [Compound D2], for which the DC50 in data set [7] is 0.18 nM.

As for `COc1cc(-c2cn(C)c(=O)c3cnc(N4CCC4)cc23)cc(OC)c1CN1CCC(CN2CCC3(CC2)CN(c2ccc4c(c2)C(=O)N(C2CCC(=O)NC2=O)C4)C3)CC1` (racemic) [racemate of the free base of the compound of Formula I], the “dissolution at pH 3” value in data set [8] is “complete dissolution”.
